Read-outs that look alike come from different tables or passages of the source. Marks after values point to notes of the source that are not given here.
Key:
[1] = UV/visible absorption spectroscopy of Eu(III) complexes in TRIS buffer; format: physicochemical; conditions: TRIS buffer pH = 7.4
From the text: Extinction Coefficient. A series of solutions of varied concentrations will be prepared from the solids based on mass and purity. The absorbance of each of these solutions at both 340 nm and at the appropriate acceptor wavelength will be measured and plotted according to Beer's Law (A=εcL where A is absorbance, ε is the extinction coefficient in M^−1 cm^−1, c is concentration, and L is path length in cm) with the fitted linear regression slope equal to […] on a plot of A as a function of C.
Each of the spectra have absorption maxima around 335-340 nm (FIG. 2). Those bands are composed of two electronic transitions; at higher energy, a purely π-π* transition and, at slightly lower energy (around ca. 320 nm), a π-π* transition with some n-π* character, as evidenced previously from TD-DFT calculations. […] This interaction gives maxima blue-shifting from 341 nm for [Eu(H(2,2)-1,2-HOPO)]^0 to 334 nm for [Eu(H(17O5,2)-1,2-HOPO)]^0 (as low as 332 nm for)[Eu(5LIN^Me-1,2HOPO)2]^0).

[2] = Luminescence quantum yield, emission and brightness in aqueous 0.1 M TRIS buffer; format: physicochemical; conditions: for øTot: 0.1M TRIS buffer pH = 7.4; for ϕTot: aqueous TRIS pH = 7.4, complexes with only one species; for Brightness: at maximum absorption, product of quantum yield and molar absorption coefficient, 0.1 M TRIS pH = 7.4
Procedure: Quantum Yield. Quantum yield will be measured using established methods. Fluorescence quantum yield Q are measured in diluted solution with an optical density lower than 0.1 using the following equation Qx/Qr=[Ar(λr)/Ax(λx)][nx^2/nr^2][Dx/Dr] were A is the absorbance at the excitation wavelength (λ), n the refractive index and D the integrated luminescence intensity. Subscripts “r” and “x” stand for reference and sample, respectively. References will be a quinine bisulfate in 1N sulfuric acid in aqueous solution (Qt=0.546)^1 and Ru(bpy)3 2C1 complexes in water solution (Qr=0.028)^2 for all complexes. A plot of integrated emission intensity (i.e. Dr) versus absorbance (i.e. Ar(λr)) yields a linear plot with a slope which can be equated to the reference quantum yield Qr. By analogy, for the unknown sample, a plot of integrated emission intensity (i.e. Dx) versus absorbance (i.e. Ax(λx)) yields a linear plot and Qx can then be evaluated. A minimum of at least two independent measurements will be averaged to derive a reliable value.

[3] = Triplet excited state energy from phosphorescence of Gd complexes at 77K; format: physicochemical; conditions: solid matrix (methanol/ethanol 1/4), using the Gd complexes
Procedure: Estimation of the energies of the ligand based triplet excited state were determined using the Gd(III) complexes. Gadolinium was chosen because it is a 4f^7 lanthanide cation having a similar 4f electronic configuration and size as the europium cation (4f^6), but lacking an accessible metal based low energy electronic excited state. At room temperature, only a broad weak emission centered between 380-400 nm can be seen for the Gd(III) complexes. […] At 77K, in solid matrix, an emission band at approx. 500 nm can be seen (FIG. 8). This emission, red-shifted compared to the singlet excited state, can be assigned to phosphorescence from the triplet excited state, lower in energy than the singlet excited state observed at room temperature. Selective time gated phosphorescence spectra (delay 0.1 ms) of the gadolinium complexes at 77K are depicted in FIG. 8.

[4] = Calculation of Eu luminescence parameters (radiative lifetime, rate constants, efficiencies); format: physicochemical; conditions: for η^Eu: efficiency of metal centred luminescence; for knr: non-radiative rate constant; for τrad: pure radiative luminescence lifetime, aqueous TRIS pH = 7.4; for kr: radiative rate constant; for η^sens: sensitization efficiency
Procedure: In this equation, the ηISC ηET term is termed the sensitization efficiency, ηsens (ηsens=ηISC ηET). All the luminescence parameters τR (the pure radiative luminescence lifetime), kR and knR (the radiative and non-radiative constant rate) can be deduced. These parameters were calculated for five of the octadentate complexes and the model complex that present only one species in solution at pH=7.4 and are reported in Table 6.

[5] = cited from earlier work; for λ: absorption maximum
[6] = cited from earlier work; for ϕEu: quantum yield
[7] = cited from earlier work; for τ (D2O): first component where two are printed; for τ (H2O): first (longer) component
[8] = cited from earlier work
[9] = Luminescence lifetimes (TRIS buffer, deuterated water, 77K) and inner sphere water number q; conditions: for τ: aqueous TRIS pH = 7.4; for τ^D: deuterated solution; for τ^D / τ (77K): first component; for q: inner sphere water molecules, improved Horrock's equations, first species; for τ (77K): solid matrix at 77K (methanol/ethanol 1/4)
Procedure: Fluorescent decay signals can be acquired using an IBH DataStation Hub photon counting module and data analysis performed using the commercially available DAS 6 decay analysis software package from HORIBA Jobin Yvon IBH. Goodness of fit will be assessed by minimizing the reduced chi squared function, χ2, and a visual inspection of the weighted residuals. Each trace will use at least 10,000 points and the reported lifetime values result from at least three independent measurements.
In addition to the steady state emission spectra, the luminescence quantum yields and luminescence lifetimes of the Eu(III) complexes were also measured in aqueous solution with 0.1 M TRIS buffer pH=7.4 and in deuterated solution to estimate the number of inner sphere water molecule (i.e. q) using the improved Horrock's equations.
Luminescence lifetimes were also determined at 77K, in a solid matrix (Table 5), which have allowed us to determine whether back energy transfer between the donor triplet excited state and the acceptor manifold excited state of the lanthanide is present, or alternately whether quenching via low lying LMCT state occurs.

[10] = listed as [Eu(H(2,2)-1,2-HOPO)]^0
[11] = listed as [Eu(H(2,2)-1,2HOPO)]^0
[12] = number of inner sphere water molecules, first species
[13] = competitive batch titration using DTPA in 0.1M TRIS pH = 7.4 and 0.1M KCl
[14] = listed as [Eu(5LIN^Me-1,2HOPO)2]^0
[15] = listed as [Eu(5LIN^Me-1,2-HOPO)2]

## O=C(NCCN(CCCCN(CCNC(=O)c1cccc(=O)n1O)CCNC(=O)c1cccc(=O)n1O)CCNC(=O)c1cccc(=O)n1O)c1cccc(=O)n1O [Eu(H2)]
[1]; [10]
  λ^maxabs: 341 nm
[1]; [11]
  ε: 18,200 M^−1 · cm^−1
  λ^maxabs: 341 nm
[2]; [11]
  øTot: 0.036
  Brightness: 655 M⁻¹ cm⁻¹
[2]; listed as [Eu(H(22)-1,2-HOPO)]
  ϕTot: 0.036
[2]; [10]
  Brightness: 655 M⁻¹ cm⁻¹
[2]; related to inner-sphere coordinated water
  overall quantum yield (in words): low quantum yields
[3]; [11]
  T0-0 (triplet excited state energy): 21,980 cm^−1
[4]; listed as [Eu(H(22)-1,2-HOPO)]
  η^Eu: 0.160
  knr: 1750 s⁻¹
  τrad: 3000 μs
  kr: 333 s⁻¹
  η^sens: 0.225
[5]
  λ: 341 nm
[5]; extinction coefficient
  ε: 18,200 M^1 cm^−1
[6]
  ϕEu: 0.036
[7]
  τ (D2O): 1222 μs
  τ (H2O): 480 μs
[7]; [12]
  q: 1.1
[8]; [13]
  pEu: 21.2
[9]; listed as [Eu(H(22)-1,2-HOPO)]
  τ: 480 μs
[9]; [11]
  τ^D: 1222 μs
  q: 1.1
  τ (77K): 914 μs

## O=C(NCCN(CCCCN(CCNC(=O)c1cccc(=O)n1O)CCNC(=O)c1cccc(=O)n1O)CCNC(=O)c1cccc(=O)n1O)c1cccc(=O)n1O [Eu(5LiN^Me), reference compound]
[1]; [14]
  ε: 18,050 M^−1 · cm^−1
  λ^maxabs: 332 nm
[2]; [14]
  øTot: 0.173^b
  Brightness: 3120 M⁻¹ cm⁻¹
[2]; [15]
  ϕTot: 0.173
[2]; listed as [Eu(5LIN^Me-1,2-HOPO)2]^0
  Brightness: 3400 M⁻¹ cm⁻¹
[3]; [14]
  T0-0 (triplet excited state energy): 22,010 cm^−1
[4]; [15]
  η^Eu: 0.412
  knr: 807 s⁻¹
  τrad: 1770 μs
  kr: 566 s⁻¹
  η^sens: 0.420
[5]
  λ: 332 nm
[5]; see reference [47]
  λ: 332 nm
[5]; extinction coefficient
  ε: 18,750 M^1 cm^−1
[5]; see reference [47], in M-1·cm-1 (unit assumed)
  ε: 18,750
[6]
  ϕEu: 0.17
[6]; see reference [47]
  ϕTot: 0.17
[7]
  τ (D2O): 1000 μs
  τ (H2O): 728 μs
[7]; [12]
  q: 0.1
[7]; see reference [47]
  q: 0.1
  τ: 728 μs
  τ^D: 1000 μs
[8]; [13]
  pEu: 17.3
[8]; see reference [47], DTPA competition, 0.1M TRIS pH = 7.4, 0.1M KCl
  pEu: 17.3
[9]; [15]
  τ: 728 μs
[9]; [14]
  τ^D: 1000^b μs
  q: 0.1^b
  τ (77K): 860 μs

Source: patent publication US10352938B2, “Macrocyclic HOPO chelators” (LUMIPHORE, INC., priority 2009, dated 2019)
